Data: ChEMBL document CHEMBL1131271, “Potent inhibitors of the MAP kinase p38” (Bioorg Med Chem Lett, 1998)

target: MAP kinase p38 (Homo sapiens, UniProt O15264+Q15759+Q16539+P53778); assay: Inhibition of TNF-alpha production by lipopolysaccharide-stimulated human peripheral blood mononuclear cells; type: functional

Row | SMILES | IC50
1 | Nc1cc(OCCCc2ccccc2)c2c(-c3ccncc3)c(-c3ccc(F)cc3)[nH]c2n1 | 9 nM
2 | Nc1ccc2c(-c3ccncc3)c(-c3ccc(F)cc3)[nH]c2n1 | 37 nM
3 | CCCCOc1cc(N)[nH]c2nc(-c3ccc(F)cc3)c(-c3ccncc3)c1-2 | 4 nM
4 | COc1cccc(COc2cc(N)[nH]c3nc(-c4ccc(F)cc4)c(-c4ccncc4)c2-3)c1 | 1.5 nM
5 | Nc1cc(OCc2ccccc2)c2c(-c3ccncc3)c(-c3ccc(F)cc3)[nH]c2n1 | 0.91 nM
